Values quoted from earlier work as cited in patent US20230399457A1, “Bioactive Synthetic Copolymer, Bioactive Macromolecule and Related Methods Thereof” (Agency for Science, Technology and Research, priority 2020, published 2023).

Test system: rats

**Q.** With “AGQWHRVSVRWGC [A5G81, laminin-derived peptide]” as the sequence, how does the wound healing read?
**A.** facilitate wound healing in rats
